Test results reported in ChEMBL document CHEMBL1201862, “PubChem BioAssay data set” (2004).
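How tested: cells in 96-well plates exposed to compound for 48 hours at five concentrations. The concentration for 50% growth inhibition is given as GI50.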 Activity calls are given as the source filed them. Rule as the data show it: active = GI50 up to about 1.1 µM and inactive = higher.

Columns and labels:
Test in all cases: NCI-60 cell line screen, 48 h
SF-539 = system: SF-539
786-0 = system: 786-0
MOLT-4 = system: MOLT-4
COLO 205 = system: COLO 205
OVCAR-4 = system: OVCAR-4
SF-268 = system: SF-268
A498 = system: A498
HCT-116 = system: HCT-116
SK-MEL-5 = system: SK-MEL-5
IGROV-1 = system: IGROV-1
OVCAR-8 = system: OVCAR-8
UO-31 = system: UO-31
NCI-H522 = system: NCI-H522
DU-145 = system: DU-145
SK-MEL-2 = system: SK-MEL-2
HOP-92 = system: HOP-92
SW-620 = system: SW-620
KM12 = system: KM12
RXF 393 = system: RXF 393
PC-3 = system: PC-3

Measured: GI50

C/C=C/COc1cc(NC(=S)c2ccoc2C)ccc1OC
inactive: SF-539 76.7 µM | 786-0 75.3 µM | MOLT-4 > 100 µM | COLO 205 > 100 µM | OVCAR-4 23 µM | SF-268 44.3 µM | A498 49.3 µM | HCT-116 > 100 µM | SK-MEL-5 48.9 µM | IGROV-1 55.2 µM | OVCAR-8 57.9 µM | UO-31 61.4 µM | NCI-H522 66.1 µM | DU-145 71.1 µM | SK-MEL-2 > 100 µM | HOP-92 16.7 µM | SW-620 > 100 µM | KM12 > 100 µM | RXF 393 > 100 µM | PC-3 > 100 µM

CN(C)CCCN1c2ccccc2C(C)(C)c2ccccc21 [DIMETACRINE]
inactive: SF-539 15.2 µM | 786-0 14.4 µM | MOLT-4 13.7 µM | COLO 205 14.6 µM | OVCAR-4 13.9 µM | SF-268 13.3 µM | A498 11 µM | HCT-116 14.8 µM | SK-MEL-5 13.4 µM | IGROV-1 17.9 µM | OVCAR-8 16.1 µM | UO-31 13.9 µM | NCI-H522 14.8 µM | DU-145 15.9 µM | SK-MEL-2 16.5 µM | HOP-92 14.6 µM | SW-620 21.2 µM | KM12 14.1 µM | RXF 393 12.9 µM | PC-3 13.7 µM

COc1ccc(/C=C/C(=N/NC(=O)N/N=C(/C=C/c2ccc(OC)cc2)C(C)C)C(C)C)cc1
inactive: SF-539 > 100 µM | 786-0 > 100 µM | MOLT-4 26.1 µM | COLO 205 43.7 µM | OVCAR-4 > 100 µM | SF-268 > 100 µM | A498 > 100 µM | HCT-116 66.1 µM | SK-MEL-5 95.9 µM | IGROV-1 > 100 µM | OVCAR-8 75 µM | UO-31 76.2 µM | NCI-H522 63.1 µM | DU-145 80.2 µM | SK-MEL-2 > 100 µM | HOP-92 66.7 µM | SW-620 > 100 µM | KM12 51.2 µM | RXF 393 > 100 µM | PC-3 50.9 µM

CCOC(=O)c1cc2cc3c4c(c2oc1=O)CCCN4CCC3
inactive: SF-539 23.5 µM | 786-0 40 µM | MOLT-4 25.8 µM | COLO 205 24.7 µM | OVCAR-4 34 µM | SF-268 19.2 µM | A498 17.6 µM | HCT-116 27 µM | SK-MEL-5 13.4 µM | IGROV-1 27.2 µM | OVCAR-8 22.1 µM | UO-31 25.9 µM | NCI-H522 19.4 µM | DU-145 31.6 µM | SK-MEL-2 24.7 µM | HOP-92 17.1 µM | SW-620 67.9 µM | KM12 23.8 µM | RXF 393 10.4 µM | PC-3 29 µM

N=C(N)NS(=O)(=O)c1ccc(NNc2c3ccccc3nc3c(C(=O)Nc4ccc(S(N)(=O)=O)cc4)cccc23)cc1
inactive: SF-539 26.6 µM | 786-0 21.7 µM | MOLT-4 5.75 µM | COLO 205 31 µM | OVCAR-4 51.2 µM | SF-268 16.8 µM | A498 > 100 µM | HCT-116 28.9 µM | SK-MEL-5 27.3 µM | IGROV-1 28.8 µM | OVCAR-8 36.1 µM | UO-31 > 100 µM | NCI-H522 14.7 µM | DU-145 94 µM | SK-MEL-2 9.02 µM | HOP-92 15.1 µM | SW-620 22.1 µM | KM12 30.8 µM | RXF 393 40.6 µM | PC-3 36.1 µM

O=c1oc2ccccc2cc1-c1cn2ccccc2n1
inactive: SF-539 4.17 µM | 786-0 3.8 µM | MOLT-4 18.6 µM | COLO 205 30.1 µM | OVCAR-4 4.08 µM | SF-268 2.96 µM | A498 2.24 µM | HCT-116 10.1 µM | SK-MEL-5 6.18 µM | IGROV-1 7.05 µM | OVCAR-8 3.21 µM | UO-31 2.36 µM | NCI-H522 3.31 µM | DU-145 7.82 µM | SK-MEL-2 5 µM | HOP-92 16.6 µM | SW-620 10.4 µM | KM12 10.5 µM | RXF 393 3.85 µM | PC-3 4.26 µM

CC1CCCCCC(=O)c2c(O)cc(O)cc2CC(=O)O1 (stereo not given) [CURVULARIN]
inactive: SF-539 > 100 µM | 786-0 > 100 µM | MOLT-4 73.8 µM | COLO 205 > 100 µM | OVCAR-4 > 100 µM | SF-268 > 100 µM | A498 > 100 µM | HCT-116 > 100 µM | SK-MEL-5 > 100 µM | IGROV-1 > 100 µM | OVCAR-8 > 100 µM | UO-31 45 µM | NCI-H522 > 100 µM | DU-145 > 100 µM | SK-MEL-2 76.6 µM | HOP-92 > 100 µM | SW-620 > 100 µM | KM12 > 100 µM | RXF 393 > 100 µM | PC-3 66.8 µM
